Article PMC7516017, “Organoids to Study Intestinal Nutrient Transport, Drug Uptake and Metabolism – Update to the Human Model and Expansion of Applications” (Frontiers in Bioengineering and Biotechnology, 2020)

How the values were obtained:
human duodenal organoids = experiment: Live-cell imaging of intracellular calcium (Fura-2-AM); assay type: cell-based; details: Fura-2-AM 7μM, ratio F(λex340nm)/F(λex380nm), 100µM ATP
Experimental: (§1) 1.9. Imaging of intracellular calcium concentrations
(§2) Concentrations of substances used were: 100µM ATP (Sigma), 50mM glucose, and 50mM fructose. Using a Leica DMI6000 B inverted […]
(§3) analyzed using the Leica Application Suite Advanced Fluorescence software. Imaging of intracellular calcium concentrations was performed in human duodenal organoids.
(§4) Of note, the B27 supplement contains a n/a […]
(§5) incubated for the indicated times. Controls were not pulsed with insulin. 2. Addition of butyrate: murine colonic organoids were grown for 6 days in IC. 100µM carnitine and 1mM butyrate were added and organoids were incubated for the indicated times. Time point zero was sampled immediately after addition of butyrate and carnitine. Control organoids were not exposed to butyrate. 3. Addition of d13- […]
(§6) organoids were incubated for the indicated times. Controls were exposed to carnitine and BSA without […]
(§7) 5min) to remove remaining matrigel.
(§8) Comfort; Eppendorf, Hamburg, Germany). The samples were dried in nitrogen gas and reconstituted […]
(§9) To determine amino acid and
(§10) Analytics, Zwingen, Switzerland) was used. Data analysis was performed using Analyst 1.7® and SCIEX OS 1.4 software (Sciex).

[1] = tested on: murine large intestinal organoids; experiment: Acylcarnitine profiles after butyrate (LC-MS/MS); assay type: cell-based, mouse; details: 1mM butyrate with 100µM carnitine, measured 0, 5, 10, 30, 60 min
Experimental: as §1, §2, §3, §4, §5, §6, §7, §8, §9, §10

[2] = tested on: murine small intestinal organoids; experiment: Amino acid and acylcarnitine levels after insulin (LC-MS/MS); assay type: cell-based, mouse; details: 1 μM insulin, measured after 0, 30, 60, 120 min
Experimental: For live-cell imaging of intracellular calcium concentrations, organoids were loaded with 7μM Fura-2
AM (Life Technologies) in HEPES-saline buffer as used for imaging of intracellular acidification for
20 min at 37 °C and then washed 5 times with PBS (pH 7.4; 37 °C). Concentrations of substances used were: 100µM ATP (Sigma), 50mM glucose, and 50mM fructose. Using a Leica DMI6000 B inverted
fluorescence microscope (Leica Microsystems) at 20× magnification, images were captured every 5-
10s. The fluorescence ratio F(λex340nm)/ F(λex380nm) was calculated and imaging data were
Quantification of amino acid and acylcarnitine concentrations using targeted LC-MS/MS
Metabolite analyses were performed with samples from three different experiments: 1.
incubated for the indicated times. […] Addition of butyrate: murine colonic organoids were grown for 6 days in IC. 100µM carnitine and 1mM butyrate were added and organoids were incubated for the indicated times. […]
palmitate. Medium from untreated organoids was measured to verify organoids as source of […]
acylcarnitine concentrations, quantitative LC -MS/MS was applied as described previously [6, 7]. […]

Nc1ncnc2c1ncn2[C@@H]1O[C@H](COP(=O)(O)OP(=O)(O)OP(=O)(O)O)[C@@H](O)[C@H]1O [ATP]
intracellular calcium response (human duodenal organoids): increases in intracellular calcium

CCCC(=O)O [butyrate]
acetylcarnitine, butyrylcarnitine and palmitoylcarnitine concentrations [1]: increasing to maximal concentrations 60 min after butyrate addition

insulin
tau-methylhistidine and propionylcarnitine (C3) after insulin stimulation [2]: diminished with lowest levels observed 60 min after insulin stimulation
